Laboratory results: US5171271A, “Polypeptides with fibronectin activity” (Regents of the University of Minnesota, priority 1991, dated 1992)
Where two headings read alike, the source gives them in different places.

Columns and labels:
[1] = Heparin-binding assay on nitrocellulose sheets
Method: The assay for heparin binding utilizes nitrocellulose sheets as substrata to bind peptides or proteins to be tested for heparin binding activity. Peptides I and II or intact fibronectin (fn) were solubilized in 50 mM (NH4)2 CO3 and diIuted to the concentrations indicated in FIGS. 2 and 3. Nitrocellulose sheets which had been presoaked in 50 mM NH4 CO3 were placed in a 96 well dot blot apparatus (Bethesda Research Laboratories Bethesda, Md.), and 250 μl of various concentrations of each peptide were aspirated through the wells. Each well was then washed three times with binding buffer (10 mM Tris-HCl, pH 8.0, 0.15 M NaCl), and the filters were removed and allowed to air dry overnight. The filters were then equilibriated for 5 minutes at room temperature in binding buffer which contained 10 mM CaCl2. ^3 H-heparin was then diluted to a concentration of 50,000 cpm/ml in binding buffer (with Ca^++), and nitrocellulose sheets were incubated in the presence of this mixture for 2 hours. The filters were then washed four times with binding buffer, and air dried. The individual spots of samples were cut out of the nitrocellulose and bound heparin was quantitated with a liquid scintillation counter.

[2] = test system: K1735M4 metastatic melanoma cells; details: for Tumor Cell Adhesion, Adherent Cells: melanoma cells, one hour
Method: The cells were cultured in Dulbecco's Modified Eagle's Medium containing 5% heat inactivated fetal calf serum. The cultures were grown in 37° C. incubators with a humidified atmosphere containing 5% CO2. Cells were subcultured twice weekly by releasing cells gently from the flask, using 0.05% trypsin and 1 mM EDTA.
The melanoma cells were pulsed in the same fashion as the endothelial cells described hereinabove, except that 2 μCi/ml ^3 HTd(tritiated thymidine) was added to each culture instead of amino acids. The labeled cells were harvested as described for the endothelial cells. The cell adhesion assay was identical to that described hereinabove for the bovine aortic endothelial cell assay.

[3] = test system: Bovine aortic endothelial cells; test: Aortic endothelial cell adhesion assay; type: cell-based; details: coating concentration 5 μg/ml, 90 minutes
Method: Bovine aortic encothelial cells were isolated according to the following protocol. Aortas were obtained from a local slaughterhouse, washed in cold phosphate buffered saline (PBS) (136 mM NaCI, 2.6 mM KCl, 15.2 mM Na2 HPO4, pH 7.2) and processed within 2 hours. Crude collagenase (CLS III, 125-145 units per mg dry weight, Cooper Biomedical) was used at 2 mg/ml in Dulbecco's modified Eagle's medium (DMEM) (GIBCO). The vessel was clamped at the distal end, filled with the collagenase-PBS solution and digestion was carried out for 10 minutes. The lumenal contents were harvested, followed by the addition of fresh collagenase for two additional 10-minute periods. The enzyme-cell suspensions were added to an equal volume of DMEM containing 10% fetal bovine serum (FBS) to inhibit the enzyme and spun in a centrifuge at 400×g for 10 minutes. The resulting cell pellet was resuspended in DMEM containing 10% FBS, 100 units/ml of penicillin G, 100 μg/ml of streptomycin and 100 μg/ml of crude fibroblast growth factor. Cells are cultured in 75 cm^2 flasks in a humidified 5% CO2 atmosphere at 37° C. Cultures were fed twice a week with the same medium and cells were used in assays when approximately 75% confluent. […]
Adhesion was measured using 96 well microtiter plates adsorbed with fibronectin or peptides I and II. […] The solubilized cells were then quantitated using a liquid scintillation counter. […]

[4] = test system: CNS neurons from spinal cords of 6-day chick embryos; test: Neurite outgrowth assay, CNS neurons; type: cell-based
Method: Peptides I, II, IIa, III, CSI or intact fibronectin were diluted in Voller's buffer (0.05M Carbonate buffer, pH 9.6) and 100 μl of each concentration was dipensed into 96 well tissue culture plates in triplicate. The plates were then placed in a sterile hood overnight to evaporate the buffer and to dry the peptides onto the plate. The following morning, 200 μl of phosphate-buffered saline (PBS) containing 5 mg/ml bovine serum albumin (PBS/BSA) were added to each well and the plates were incubated for an additional 3 hours. At that point, the PBS/BSA was aspirated and cells in the appropriate media were added to each well.
Embryonic CNS nerve cell cultures were prepared by the method of Rogers et al., Devel. Biol., 98, 212-220 (1983). Briefly, spinal cords from 6-day chick embryos were isolated and their dorsal halves removed and placed Ca^++ -Mg^++ free (CMF) Hank's balanced salt solution for 10 minutes at 37° C. Only the ventral portions, containing predominantly motor neurons, were prepazed for culture. The cords were then dissociated in 0.25% trypsin (Bactotrypsin, Difco) in CMF Hanks for 25 minutes at 37° C. […] The number of neurons with neurites was quantitated by randomly sampling 10 fields with the aid of a dissecting microscope. […]

[5] = Solid phase heparin-binding assay on Immulon C plates
Method: Both peptides IIa and CS I were then compared for relative heparin-binding activity. Plastic Immulon C plates (Dynatech, Alexandria, Va.) were adsorbed with 100 μl in triplicate) of the indicated levels of peptides IIa, CS I or BSA as described. The ability of the 33 kD fragment to bind heparin was also determined, for comparison, although due to the relative size of this fragment compared with the peptides, different coating concentrations were used. The actual coating levels of the 33 kD fragment were 4, 20, 100 and 500 μg/ml. Following the blocking of nonspecific binding sites with BSA, the ability of these various substrata to bind ^3 H-heparin was determined by the addition of approximately 4,000 disintegrations per minute (dpm) of this ligand. All conditions of the assay were as described in U.S. patent application Ser. No. 89,073, the disclosure of which is incorporated by reference herein.
The three peptides derived from peptide Ila and intact peptide IIa, were adsorbed to Immulon C plates at the indicated concentrations (100 μl/ well) in triplicate and tested for the ability to bind ^3 H-heparin as described hereinabove. The results of this study are summarized on FIG. 5. […] Rather, a specific primary structure is crucial for this activity. […]

Substance	3H-heparin binding (in words) [1]	Concentration at which maximum 3H-heparin binding was observed [1]	Tumor Cell Adhesion, Adherent Cells ([2]; coating concentration 1 μg/ml) [Counts Per Minute]	Tumor Cell Adhesion, Adherent Cells ([2]; coating concentration 10 μg/ml) [Counts Per Minute]	Tumor Cell Adhesion, Adherent Cells ([2]; coating concentration 50 μg/ml)	Tumor Cell Adhesion, Adherent Cells ([2]; coating concentration 100 μg/ml) [Counts Per Minute]	Adherent Cells [3]	Promotion of neurite extension by CNS neurons (in words) [4]	3H-heparin binding (in words) [5]	Promotion of melanoma cell adhesion (in words) [2]	Melanoma Cell Adhesion, Percent Adhesion ([2]; concentration 80 μg/ml) [%]	Melanoma Cell Adhesion, Percent Adhesion ([2]; concentration 400 μg/ml) [%]
Fibronectin	bound ^3 H-heparin in a concentration dependent manner	10^-6 M	4700	7900	11,000 Counts Per Minute	9700	13,714 Counts Per Minute	–	–	–	–	–
asp-glu-leu-pro-gln-leu-val-thr-leu-pro-his-pro-asn-leu-his-gly-pro-glu-ile-leu-asp-val-pro-ser-thr [Peptide CS I, reference compound]	–	–	–	–	–	–	–	CNS neurons appeared to be preferably stimulated by peptide CS I	failed to bind to heparin at any concentration that was tested	promoted the adhesion of melanoma cells in culture	71.7	71.0
